Assay results from patent publication US10993957B2 (NuCana plc, priority 2011, dated 2021).
Like-named read-outs stand apart in the source and are kept apart here.

Assays:
L1210/0 = test: Cytostatic assay, L1210/0 cells; type: cell-based, murine; settings: for IC50: read-out: IC50 L1210/0
Text: (§1) The cell lines employed were L1210/0 (a leukemia cell line), FM3A/0 (a breast cancer cell line), Cem/0 (an acute lymphoblastic leukemia cell line) and HeLa (a cervical cell line).

L1210/TK^− = test: Cytostatic assay, thymidine kinase-deficient L1210/TK^− cells; type: cell-based, murine; settings: for CC50: L1210, Table 1, read-out: CC50 L1210/TK^−; for IC50: Table 6, read-out: IC50 L1210/TK^−
FM3A/0 = test: Cytostatic assay, FM3A/0 cells; type: cell-based; settings: Mus musculus
Procedure: The samples were assayed for biological activity versus a range of tumour cell lines with data recorded in Table 1 below. […] The cell lines employed were L1210/0 (a leukemia cell line), FM3A/0 (a breast cancer cell line), Cem/0 (an acute lymphoblastic leukemia cell line) and HeLa (a cervical cell line).

FM3A/TK^− = test: Cytostatic assay, FM3A/TK^− cells; type: cell-based; settings: Mus musculus, read-out: CC50 FM3A/TK^−
Cem/0 = test: Cytostatic assay, CEM/0 cells; type: cell-based, human; settings: for CC50: Table 1, read-out: CC50 Cem/0; for IC50: Table 6, read-out: IC50 Cem/0
Text: as §1

Cem/TK^− = test: Cytostatic assay, thymidine kinase-deficient CEM/TK^− cells; type: cell-based, human; settings: for CC50: Table 1, read-out: CC50 Cem/TK^−; for IC50: Table 6, read-out: IC50 Cem/TK^−
HeLa = test: Cytostatic assay, HeLa cells; type: cell-based; settings: for CC50: Table 1, read-out: CC50 HeLa; for IC50: Table 6, read-out: IC50 HeLa
Text: as §1

HeLa/TK^− = test: Cytostatic assay, HeLa/TK^− cells; type: cell-based; settings: for CC50: Table 1, read-out: CC50 HeLa/TK^−; for IC50: Table 6, read-out: IC50 HeLa/TK^−
Text: as §1

L1210.Hyor = test: Cytostatic assay, Mycoplasma hyorhinis-infected L1210 cells
How it was run: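 Suspension L1210/0 murine leukaemia cells infected with M. hyorhinis, seeded at 60,000 cells/well with test compound in DMEM/10% FBS and grown 48 h at 37 °C, 5% CO2. Cell number counted by Coulter counter; activity also expressed as % retained versus uninfected cells.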

[1] = Stability in buffer at pH 1 by 31P NMR; type: physicochemical; settings: 14 hours
Procedure: The stability of the prodrug CPF-373 towards hydrolysis at pH=1 was studied using in situ ^31P NMR (202 MHz). The ProTide CPF-373 (1) (2.6 mg) was dissolved in MeOD (0.1 mL) after which 0.5 mL buffer (pH=1) (prepared from equal parts of 0.2 M HCl and 0.2 M KCl) was added. Then the sample was transferred into an NMR tube, and a ^31P NMR experiment was performed at 37° C. recording the data every 12 minutes for 14 hours. Data were processed and analysed with the Bruker Topspin 2.1 program.
A chemical hydrolysis was evaluated under experimental conditions at pH 1 and pH 8 and monitored by ^31P NMR. During the assay (14 h) under acidic conditions (pH 1) only two peaks representing the two diastereoisomers were recorded.

Cem/hEnt-1 = test: Cytostatic assay, CEM cells containing the hEnt1 transporter; type: cell-based
Text: (§2) Data are mean (±SD) of at least two to four independent experiments. Table 8 identifies the phosphoramidate motif of compounds embodying the present invention, as discussed above with respect to Table 6, but with “Naph” standing for 1-naphthyl.

Cem/hEnt-0 = test: Cytostatic assay, CEM cells lacking the hEnt1 transporter; type: cell-based; settings: Table 8; read-out: IC50 Cem/hEnt-0
Text: as §2

[2] = biological target: Thymidine Phosphorylase purified from Escherichia coli (Escherichia coli, UniProt P07650); test: Phosphorylase assay by in situ 19F NMR; settings: potassium phosphate buffer 300 nM, pH 7.4; after 5 min, 14 h and 72 h
Thymidine Phosphorylase purified from Escherichia coli, sequence (P07650 whole entry): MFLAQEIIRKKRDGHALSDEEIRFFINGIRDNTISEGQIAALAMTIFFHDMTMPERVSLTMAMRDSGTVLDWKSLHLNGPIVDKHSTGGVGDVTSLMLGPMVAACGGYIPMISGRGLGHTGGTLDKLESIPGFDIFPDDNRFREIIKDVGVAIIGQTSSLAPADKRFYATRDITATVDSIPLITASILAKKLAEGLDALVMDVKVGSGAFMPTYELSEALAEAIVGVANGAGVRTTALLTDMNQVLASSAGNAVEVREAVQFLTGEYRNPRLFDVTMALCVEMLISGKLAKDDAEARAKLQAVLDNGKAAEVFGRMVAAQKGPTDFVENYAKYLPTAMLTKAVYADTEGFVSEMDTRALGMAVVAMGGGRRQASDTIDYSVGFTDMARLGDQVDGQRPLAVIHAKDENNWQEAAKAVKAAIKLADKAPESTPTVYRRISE
Procedure: Two potassium phosphate buffers at pH=7.4, 200 nM solution and 300 nM solution respectively, were used as phosphate donor. Units of enzyme were defined as the amount of enzyme required to hydrolyse about 0.25 mg of inosine per min used as standard. Assays were conducted for 30 minutes.

[3] = Stability in human serum by in situ 31P NMR; type: in vitro ADME; settings: 37° C., after 13 h and 30 min
Procedure: The stability of the prodrug CPF-373 in the presence of human serum was studied using in situ ^31P NMR (202 MHz). The ProTide CPF-373 (1) (5.0 mg) was dissolved in DMSO (0.05 mL) and D2O (0.15 mL). Then the sample was transferred into an NMR tube, which was inserted in the NMR chamber at 37° C. (with enough solvent to obtain a control NMR reading of the blank). Then 0.3 ml human serum was quickly added to the sample in the NMR tube. NMR experiments were programmed to record data every 15 minutes for 12 hours and 30 minutes. Because of excess noise and poor shimming profiles (most likely due to the biological media and concentration), individual spectra were further processed. After normal Fourier transform processing, each spectrum was deconvoluted (Lorentz-Gauss deconvolution) to reveal solely the frequency and area of spectral peaks without the baseline. Data recorded were processed and analysed with the Bruker Topspin 2.1 program.
Chemical stability studies on the prodrug CPF-373 (1) have been performed by exposing the compound to human serum and to aqueous buffers (pH 1.0 and 8.0) using in situ ^31P NMR. […]
The stability of compound CPF 386 in the presence of human serum was investigated using in situ ^31P NMR. A control ^31P NMR data of compound CPF 386 in DMSO and D2O were recorded. […] The ^31P NMR data were recorded every 15 minutes over 14 h. […]

human UP = human UP (Homo sapiens, UniProt Q16831); test: Phosphorolysis by human UP, HPLC; settings: 100 μM compound, room temperature, 0-40 min
human UP, sequence (Q16831 whole entry): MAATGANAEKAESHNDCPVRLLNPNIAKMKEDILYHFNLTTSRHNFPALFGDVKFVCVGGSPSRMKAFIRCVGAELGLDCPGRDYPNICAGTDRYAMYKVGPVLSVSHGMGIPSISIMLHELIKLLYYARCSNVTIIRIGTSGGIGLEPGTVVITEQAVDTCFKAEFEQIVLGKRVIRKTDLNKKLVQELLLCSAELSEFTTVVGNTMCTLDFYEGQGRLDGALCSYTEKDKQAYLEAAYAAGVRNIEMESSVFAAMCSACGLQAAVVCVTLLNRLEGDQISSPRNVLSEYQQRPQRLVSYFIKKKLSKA
Procedure: Reaction mixtures containing 100 μM test compound and recombinant TP or UP (human TP: 8.6 ng/μL; E. coli TP: 3.0 ng/μL; human UP: 4 ng/mL) in a total volume of 500 μL reaction buffer (10 mM TrisHCl; 300 μM NaCl; 1 mM EDTA; 2 mM KH2PO4/K2HPO4) were incubated at room temperature. At different time points (i.e. 0, 20, 40 min) 100 μL aliquots of the reaction mixtures were withdrawn and heated at 95° C. for 3 min to inactivate the enzyme. […] The separation of Urd from uracil was performed by a linear gradient from 100% separation buffer (see above) to 60% separation buffer+40% acetonitrile (3 min 100% separation buffer; 6 min linear gradient of 100% separation buffer to 60% separation buffer+40% acetonitrile; 6 min 60% separation buffer+40% acetonitrile, followed by equilibration at 100% separation buffer).

[4] = Mus musculus, L1210/0, Table 1, read-out: CC50 L1210/0
[5] = Mus musculus, L1210, read-out: IC50 L1210.Hyor

Compound	CC50 (L1210/0; [4]) [nM]	IC50 (L1210/0; Mus musculus, L1210/0, Table 6) [nM]	IC50 (L1210/0; Mus musculus, L1210/0, Table 7) [nM]	CC50 (L1210/TK^−; Mus musculus) [nM]	IC50 (L1210/TK^−; Mus musculus, L1210) [nM]	CC50 (FM3A/0; FM3A/0, read-out: CC50 FM3A/0) [nM]	CC50 (FM3A/TK^−) [µM]	CC50 (Cem/0; Homo sapiens, CCRF-CEM) [nM]	IC50 (Cem/0; Homo sapiens, CCRF-CEM) [nM]	CC50 (Cem/TK^−; Homo sapiens, CEM-TK(-)) [µM]	IC50 (Cem/TK^−; Homo sapiens, CEM-TK(-)) [µM]	CC50 (HeLa; Homo sapiens, HeLa) [nM]	IC50 (HeLa; Homo sapiens, HeLa) [nM]	CC50 (HeLa/TK^−; Homo sapiens, HeLa) [µM]	IC50 (HeLa/TK^−; Homo sapiens, HeLa) [µM]	IC50 (L1210.Hyor; [5]) [nM]	IC50(L1210.Hyor)/IC50(L1210/0) (L1210.Hyor; Table 7)	other results
CCOC(=O)[C@H](C)NP(=O)(OC[C@H]1O[C@@H](n2cc(F)c(=O)[nH]c2=O)CC1O)Oc1ccccc1 (some centres unmarked) [CPF 383]	130 ± 40	130 ± 40	110 ± 2.1	940 ± 180	940 ± 180	640 ± 570	4.1 ± 2	920 ± 110	920 ± 110	14	14	480 ± 190	480 ± 190	9.8 ± 1.4	9.8 ± 1.4	540 ± 120	5	
CC(C)OC(=O)[C@H](C)NP(=O)(OC[C@H]1O[C@@H](n2cc(F)c(=O)[nH]c2=O)CC1O)Oc1ccccc1 (stereo partly drawn) [CPF 384, 5-Fluoro-2′deoxyuridine-5′-O-[phenyl(isopropoxy-L-alaninyl)] phosphate]	76 ± 22	76 ± 22	50 ± 13	1100 ± 100	1100 ± 100	360 ± 250	13 ± 1	1000 ± 100	1000 ± 100	30 ± 10	30 ± 10	710 ± 150	710 ± 150	25 ± 11	25 ± 11	700 ± 100	14	
O=c1[nH]cc(F)c(=O)[nH]1 [5-FU, 5-Fluorouracil, reference compound]	330 ± 170	330 ± 170		320 ± 310	320 ± 310			18000 ± 5000	18000 ± 5000		12 ± 1	540 ± 120	540 ± 120		0.23 ± 0.01			CC50 (FM3A/0; FM3A/0, Table 1, read-out: CC50 FM3A/0): 180 ± 20 nM
C[C@H](NP(=O)(OC[C@H]1O[C@@H](n2cc(F)c(=O)[nH]c2=O)CC1O)Oc1ccccc1)C(=O)OCc1ccccc1 (stereo partly drawn) [CPF 381, 5-Fluoro-2′-deoxyuridine-5′-O-[phenyl(benzoxy-L-alaninyl)]phosphate]																	5.8	CC50 (L1210/0; Table 2, mycoplasma negative cells, read-out: CC50 L1210): 26 nM; IC50 (L1210/0; Table 6): 28 ± 7 nM; IC50 (L1210/0; Table 7): 26 ± 8 nM; IC50 (L1210/TK^−): 13000 ± 8000 nM; IC50 (Cem/0): 180 ± 30 nM; IC50 (Cem/TK^−): 22 ± 7 µM; IC50 (HeLa): 130 ± 10 nM; IC50 (HeLa/TK^−): 19 ± 2 µM; % Retention (L1210.Hyor; CC50 L1210 × 100 ÷ CC50 L1210/Hyor): 18%; CC50 (L1210.Hyor; read-out: CC50 L1210/Hyor, Table 2, mycoplasma positive cells): 150 nM; IC50 (L1210.Hyor; read-out: IC50 L1210.Hyor, Table 7): 150 ± 6 nM; Stability towards hydrolysis at pH 1 [1]: highly stable; IC50 (Cem/hEnt-1; Table 8, read-out: IC50 Cem/hEnt-1): 130 ± 50 nM; IC50 (Cem/hEnt-1; in the presence of NBMPR, read-out: IC50 Cem/hEnt-1 + NBMPR): 720 nM; IC50 (Cem/hEnt-1; in the presence of dipyridamole, read-out: IC50 Cem/hEnt-1 + dipyridamole): 660 nM; IC50 (Cem/hEnt-0): 1400 ± 650 nM; Phosphorolysis by thymidine phosphorylase (19F NMR) [2]: did not show any evidence of phosphorolysis
CCOC(=O)[C@H](C)NP(=O)(OC[C@H]1O[C@@H](n2cc(F)c(=O)[nH]c2=O)CC1O)Oc1cccc2ccccc12 (stereo partly drawn) [CPF 386, 5-Fluoro-2′deoxyuridine-5′-O-[1-naphthyl (ethoxy-L-alaninyl)] phosphate]	31 ± 5	31 ± 5	28 ± 2.1	360 ± 10	360 ± 10			250 ± 40	250 ± 40	1.6 ± 0.2	1.6 ± 0.2	220 ± 40	220 ± 40	2.8	2.8	95 ± 2.8	3.4	parent compound in reaction mixture with human serum [3]: 96%
O=c1ccn([C@@H]2O[C@H](CO)[C@@H](O)[C@H]2O)c(=O)[nH]1 [uridine, reference compound]																		Phosphorolysis by human UP (human UP): converted to uracil
